The text below walks through data of patent US7541363B2, “Microcrystal” (Kyowa Hakko Kirin Co., Ltd., priority 2003, dated 2009).

Molecules are shown by their SMILES.

A short description of series [1]: Solubility in water at room temperature against elapsed time. It counts as physicochemical. The following applies: 2 mg in water (200 mL) at room temperature. Here is the method:
By using Crystals A (the average particle size of crystals: 167 μm, 2 mg) and Microcrystals A (the particle size of microcrystals D100=8.7 μm, 2 mg) obtained in Example 2, the solubility of each of them in water (200 mL) at room temperature was measured.

Series [2] can be described thus: Aggregation and dispersing property during steps for preparing pharmaceutical formulation. Type of series: physicochemical.
Series [3] can be described thus: Crystallinity by powder X-ray diffraction. Type of series: physicochemical. The text has this:
Although there is no particular limitation for the “microcrystal(s) of (E)-8-(3,4-dimethoxystyryl)-1,3-diethyl-7-methyl-3,7-dihydro-1H-purine-2,6-dione having an average particle size of less than 50 μm” (that is “microcrystal(s) of Compound 1”) of the present invention so far as it is the crystalline Compound 1 having an average particle size of less than 50 μm, among them microcrystal(s) having an average particle size of 0.5 to 20 μm is/are preferable. The “microcrystal(s) of Compound 1” having a crystallinity of 20% or more is/are more preferable. Among them, the “microcrystal(s) of Compound 1” having a crystallinity of 30% or more is/are still more preferable and the “microcrystal(s) of Compound 1” having a crystallinity of 40% or more is/are most preferable. Incidentally, the average particle size thereof can be measured by using, for example, a laser diffraction/scattering particle size distribution analyzer (e.g., Mastersizer 2000, Ver. 2.00J; manufactured by Malvern Instruments), an image analyzer (e.g., Luzex® AP; manufactured by Nileco) or the like, and can be calculated as the mean of the particle size distribution. The crystallinity thereof can be calculated by measuring the integral intensity of the diffraction peak at a specific angle of diffraction 2θ by using a powder X-ray diffractmeter (e.g., JDX 8030; manufactured by Nippon Denshi).
The crystallinity of Compound 1 in each Sample (hereinafter, may be just referred to as the crystallinity) was calculated by the following method after measuring the diffraction peak of each Sample by changing from 0° to 40° at the angle of diffraction 2θ by a powder X-ray diffractmeter.
A calibration curve used for the calculation of the relative crystallinity was prepared by measuring the integral intensity of the diffraction peak at angle of diffraction 2θ=about 16° using physical mixtures prepared in various ratios and then plotting the ratios of amounts of the “crystalline Compound 1” in the physical mixtures against the integral intensities of the diffraction peaks respectively.
An integral intensity of the diffraction peak of the sample at the angle of diffraction 2θ=about 16° was measured. An amount of the “crystalline Compound 1” in each sample was calculated from the measured integral intensity on the basis of the above-described calibration curve, and the relative crystallinity (%) of each sample was determined from the following formula as the ratio of the amount of “Compound 1” (“crystalline Compound 1” and “an amorphous Compound 1”) against the amount of the “crystalline Compound 1”. A crystallinity (%) was determined by a proportional calculation from the relative crystallinity (%) determined hereinabove and the crystallinity (87.2%) of the unpulverized “crystals of Compound 1”. Relative Crystallinity (%)=(Amount of the “crystalline Compound 1”/Amount of “Compound 1”)×100 <Method for Measurement of Photostability>

Series [4] can be described thus: Comparison of absorption in oral administration (plasma concentration). Type of series: in vivo, male rats of SD strain. As to conditions: male SD rats; for Cmax (maximum concentration in plasma): 0.3 mg/mL suspension in 0.5 w/v % methyl cellulose at 10 mL/kg, mean ± s.e.m., three rats. The method, then:
Each of Crystal B (the average particle size of crystals: 181 μm) and Microcrystals B (the average particle size of crystals: 11 μm) obtained in Example 3 was suspended in a 0.5 w/v % aqueous solution of methyl cellulose to prepare a drug liquid (0.3 mg/mL) for administration. The resulting drug liquid was orally administered to male rats of SD strain (body weight: 209 to 233 g; Nippon Charles River) at the dose of 10 mL/kg. Blood of the rat (about 0.3 mL for each time) was sequentially collected from tail vein by using a heparin-treated capillary tube 0.25, 0.5, 1, 2, 4, 6, 8, 12 and 24 hour(s) after the administration. The resulting blood was centrifuged (1,950×g, 10 minutes, 4° C.) and plasma was separated. Concentration of “Compound 1” in the resulting plasma was measured by HPLC and mean value from three rats was calculated. Maximum concentration in plasma (Cmax), the area under the plasma curve of concentration-time curve between the administration and the point which can be determined quantitatively finally (AUC0-t) and the area under the plasma curve of concentration-time curve between the administration and infinitive time (AUC0-∞), of case in which each of Crystals B and Microcrystals B were orally administered to the rat, are shown in Table 2. Incidentally, conditions for the measurement by HPLC are as follows. Instrument for analysis: Series L-7000 (manufactured by Hitachi) Column: Ultron VX-ODS (φ4.6×150 mm) Column temperature: 30° C. Mobile phase: 10 mmol/L acetate buffer (pH 5.7)/acetonitrile=53/47 […] Detecting condition: UV 360 nm

The subject of a further series is adenosine A2 receptor. The following applies: cited from earlier work.
For series [5] the following is noted: double bond (vinylene) moiety apt to be isomerized; cited from earlier work.
The conditions of series [6]: crystals synthesized by the prior-art process; cited from earlier work.
Series [7] is described as follows: Photostability: residual ratio of Compound 1 after irradiation under a fluorescent lamp. Type of series: physicochemical. As to conditions: no HPMC, unpulverized; about 5,000 lx fluorescent lamp, 8 hours. Here is the method: Photostability of each sample was traced by measuring the residual ratio (%) of “Compound 1” in the sample according to the following method.
Transparent glass vials, in which the samples were weighed and filled, were stored at about 5,000 lx under a fluorescent lamp, and each sample was sampled 8 hours after the irradiation. The sampled sample was dissolved in a mixed solvent of water and acetonitrile (water:acetonitrile=60:40), and then the amount of “Compound 1” in the sample was determined quantitatively by using a high-performance liquid chromatography (HPLC). Amount of “Compound 1” before irradiation was defined as 100% and the amount of “Compound 1” after irradiation thereto was calculated as the residual ratio (%).
Conditions for the measurement by HPLC are as follows.
Instrument for analysis: Series LC-6 (manufactured by Shimadzu)
Column: Inertsil ODS-2 (φ6×150 mm)
Column temperature: 25° C.
Mobile phase: 50 mmol/L KH2PO4 (pH 6.1, KOH)/acetonitrile=60/40
Detecting condition: UV 248 nm

[8] abbreviates: drug substance crystals as obtained.

Consider `CCn1c(=O)c2c(nc(/C=C/c3ccc(OC)c(OC)c3)n2C)n(CC)c1=O` [Microcrystals A, (E)-8-(3,4-dimethoxystyryl)-1,3-diethyl-7-methyl-3,7-dihydro-1H-purine-2,6-dione], for which the “solubility of Compound 1” value in series [1] is reported as “good solubility”. Also, the dissolving velocity entry in series [1] (compared with Crystals A) is “quick dissolving velocity as compared to Crystals A”. Further, in series [2], the “aggregation of the crystals during steps for preparing pharmaceutical formulation” value was “no phenomenon of aggregation”. Also, in series [2] (compared with Crystals A), the dispersing property result was “excellent dispersing property as compared to Crystals A”. Also, the crystallinity in series [3] (setting [8]) is 84.6%.
Take `CCn1c(=O)c2c(nc(/C=C/c3ccc(OC)c(OC)c3)n2C)n(CC)c1=O` [Microcrystals B, (E)-8-(3,4-dimethoxystyryl)-1,3-diethyl-7-methyl-3,7-dihydro-1H-purine-2,6-dione]: the “Cmax (maximum concentration in plasma)” value in series [4] is recorded as 238 ± 4 ng/mL. For the same compound, the “absorption in oral administration” value in series [4] (compared with Crystals B) was “better absorption in oral administration than Crystals B”. The compound further came in with a crystallinity in series [3] (setting [8]) of 67.3%.
Regarding `CCn1c(=O)c2c(nc(/C=C/c3ccc(OC)c(OC)c3)n2C)n(CC)c1=O` [Compound 1, (E)-8-(3,4-dimethoxystyryl)-1,3-diethyl-7-methyl-3,7-dihydro-1H-purine-2,6-dione], the “adenosine A2 receptor antagonistic activity” value with adenosine A2 receptor is listed as “shows an adenosine A2 receptor antagonistic activity”. Besides, the stability under light entry in series [5] was “unstable particularly under light”.
Regarding `CCn1c(=O)c2c(nc(/C=C/c3ccc(OC)c(OC)c3)n2C)n(CC)c1=O` [Unpulverized “Crystals of Compound 1”, (E)-8-(3,4-dimethoxystyryl)-1,3-diethyl-7-methyl-3,7-dihydro-1H-purine-2,6-dione], the solubility in water result in series [6] was “low”. Moreover, the crystallinity in series [3] (setting [8]) came to 87.2%; in series [3] (no HPMC, unpulverized), 87.2%. The “Residual Rate of “Compound 1”” value in series [7] worked out at 100.0%.
Turning to `CCn1c(=O)c2c(nc(/C=C/c3ccc(OC)c(OC)c3)n2C)n(CC)c1=O` [Crystals B, (E)-8-(3,4-dimethoxystyryl)-1,3-diethyl-7-methyl-3,7-dihydro-1H-purine-2,6-dione], the “Cmax (maximum concentration in plasma)” value in series [4] is 72.6 ± 31.7 ng/mL. In series [3] (setting [8]), this compound yielded a crystallinity of 71.6%.
